Legend:
Assay type in all cases: in vivo
[1] = system: woolly cupgrass (Eriochloa villosa); test: Test C pre-/postemergence: woolly cupgrass
Summary of the method: (§1)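 Preemergence on seeds in loam/sand, postemergence on 2–18 cm (1–4-leaf) plants in peat-based medium; compounds in non-phytotoxic solvent with surfactant. After 13–15 days in greenhouse, visual rating versus controls, 0 (no effect) to 100 (complete control).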

[2] = system: bermudagrass (Cynodon dactylon); test: Test C pre-/postemergence: bermudagrass
Summary of the method: as §1

[3] = system: windgrass (Apera spica-venti); test: Test C postemergence: windgrass
Summary of the method: (§2)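 Visual 0–100 injury score vs untreated controls (0 none, 100 complete control), taken 13–15 d after treatment. Postemergence spray on potted plants, 2–18 cm, 1–4 leaves; greenhouse.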

[4] = system: foxtail, green (green foxtail, Setaria viridis); test: Test C pre-/postemergence: foxtail, green
Summary of the method: as §1

[5] = system: canarygrass (Phalaris minor); test: Test C postemergence: canarygrass
Summary of the method: as §2

[6] = system: goosegrass (Eleusine indica); test: Test C pre-/postemergence: goosegrass
Summary of the method: as §1

[7] = system: barley (winter barley, Hordeum vulgare); test: Test C postemergence: barley
Summary of the method: as §2

[8] = system: surinam grass (Brachiaria decumbens); test: Test C pre-/postemergence: surinam grass
Summary of the method: as §1

[9] = system: common (oilseed) sunflower (Helianthus annuus); test: Test C pre-/postemergence: sunflower; details: Preemergence
Excerpt: Seeds of plant species selected from blackgrass (Alopecurus myosuroides), bromegrass, downy (downy bromegrass, Bromus tectorum), foxtail, green (green foxtail, Setaria viridis), ryegrass, Italian (Italian ryegrass, Lolium multiflorum), winter wheat (Triticum aestivum), wild oat (Avena fatua), galium (catchweed bedstraw, Galium aparine), bermudagrass (Cynodon dactylon), surinam grass (Brachiaria decumbens), cocklebur (common cocklebur, Xanthium strumarium), corn (Zea mays), large crabgrass (Digitaria sanguinalis), woolly cupgrass (Eriochloa villosa), foxtail, giant (giant foxtail, Setaria faberii), goosegrass (Eleusine indica), johnsongrass (Sorghum halepense), kochia (Kochia scoparia), lambsquarters (Chenopodium album), morningglory (Ipomoea coccinea), nightshade (eastern black nightshade, Solanum ptycanthum), nutsedge, yellow (yellow nutsedge, Cyperus esculentus), pigweed (Amaranthus retroflexus), ragweed (common ragweed, Ambrosia elation), soybean (Glycine max), common (oilseed) sunflower (Helianthus annuus), Russian thistle (Salsola kali) and velvetleaf (Abutilon theophrasti) were planted into a blend of loam soil and sand and treated preemergence with test chemicals formulated in a non-phytotoxic solvent mixture which included a surfactant.
At the same time, plants selected from these crop and weed species and also barley (winter barley, Hordeum vulgare), canarygrass (Phalaris minor), chickweed (common chickweed, Stellaria media) windgrass (Apera spica-venti) and deadnettle (henbit deadnettle, Lamium amplexicaule) were planted in pots containing Redi-Earth® planting medium (Scotts Company, 14111 Scottslawn Road, Marysville, Ohio 43041) comprising spaghnum peat moss, vermiculite, wetting agent and starter nutrients and treated with postemergence applications of test chemicals formulated in the same manner. Plants ranged in height from 2 to 18 cm (1- to 4-leaf stage) for postemergence treatments.
Treated plants and controls were maintained in a greenhouse for 13 to 15 days, after which time all species were compared to controls and visually evaluated. Plant response ratings, summarized in Table C, are based on a scale of 0 to 100 where 0 is no effect and 100 is complete control. A dash (-) response means no test result.

[10] = system: cocklebur (common cocklebur, Xanthium strumarium); test: Test C pre-/postemergence: cocklebur
Summary of the method: as §1

[11] = Postemergence, 31 g ai/ha, scale 0 to 100 (0 no effect, 100 complete control)
[12] = Postemergence, 62 g ai/ha, scale 0 to 100 (0 no effect, 100 complete control)
[13] = Postemergence, 125 g ai/ha, scale 0 to 100, 0 no effect, 100 complete control
[14] = Postemergence, 250 g ai/ha, scale 0 to 100
[15] = Preemergence, 31 g ai/ha, scale of 0 to 100, 0 is no effect, 100 is complete control
[16] = Preemergence, 62 g ai/ha, scale of 0 to 100, 0 is no effect, 100 is complete control
[17] = Preemergence, 125 g ai/ha, scale 0 to 100, 0 no effect, 100 complete control
[18] = Preemergence, 250 g ai/ha, scale 0 to 100, 0 no effect, 100 complete control
[19] = Preemergence, 62 g ai/ha, scale 0 to 100, 0 no effect, 100 complete control
[20] = 31 g ai/ha, scale 0 to 100 (0 no effect, 100 complete control)
[21] = 62 g ai/ha, scale 0 to 100 (0 no effect, 100 complete control)
[22] = 125 g ai/ha, scale 0 to 100, 0 no effect, 100 complete control
[23] = 31 g ai/ha, scale of 0 to 100, 0 is no effect, 100 is complete control
[24] = 62 g ai/ha, scale of 0 to 100, 0 is no effect, 100 is complete control
[25] = Postemergence, 16 g ai/ha, scale 0 to 100, 0 no effect, 100 complete control
[26] = Preemergence, 16 g ai/ha, scale 0 (no effect) to 100 (complete control)
[27] = 16 g ai/ha, scale 0 to 100, 0 no effect, 100 complete control

SMILES: Fc1ccc(-n2nc(Cc3ccnc(C(F)(F)F)c3)c(OC(F)F)n2)cc1 [Compound 25]
- Plant response rating, Cupgrass, Woolly [1, 11]: 25
- Plant response rating, Cupgrass, Woolly [1, 12]: 25
- Plant response rating, Cupgrass, Woolly [1, 13]: 25
- Plant response rating, Cupgrass, Woolly [1, 14]: 45
- Plant response rating, Cupgrass, Woolly [1, 15]: 20
- Plant response rating, Cupgrass, Woolly [1, 16]: 40
- Plant response rating, Cupgrass, Woolly [1, 17]: 65
- Plant response rating, Cupgrass, Woolly [1, 18]: 98
- Plant response rating, Bermudagrass [2, 11]: 15
- Plant response rating, Bermudagrass [2, 12]: 20
- Plant response rating, Bermudagrass [2, 13]: 25
- Plant response rating, Bermudagrass [2, 14]: 25
- Plant response rating, Bermudagrass [2, 15]: 85
- Plant response rating, Bermudagrass [2, 19]: 98
- Plant response rating, Bermudagrass [2, 17]: 98
- Plant response rating, Bermudagrass [2, 18]: 100
- Plant response rating, Windgrass [3, 20]: 30
- Plant response rating, Windgrass [3, 21]: 35
- Plant response rating, Windgrass [3, 22]: 40
- Plant response rating, Windgrass ([3]; 250 g ai/ha, scale 0 to 100): 40
- Plant response rating, Foxtail, Green [4, 11]: 35
- Plant response rating, Foxtail, Green [4, 12]: 35
- Plant response rating, Foxtail, Green [4, 13]: 35
- Plant response rating, Foxtail, Green [4, 14]: 70
- Plant response rating, Foxtail, Green [4, 15]: 90
- Plant response rating, Foxtail, Green [4, 16]: 95
- Plant response rating, Foxtail, Green [4, 17]: 95
- Plant response rating, Foxtail, Green [4, 18]: 95
- Plant response rating, Canarygrass [5, 20]: 5
- Plant response rating, Canarygrass [5, 21]: 10
- Plant response rating, Canarygrass [5, 22]: 30
- Plant response rating, Canarygrass ([5]; 250 g ai/ha, scale 0 to 100): 55
- Plant response rating, Goosegrass [6, 11]: 15
- Plant response rating, Goosegrass [6, 12]: 20
- Plant response rating, Goosegrass [6, 13]: 25
- Plant response rating, Goosegrass [6, 14]: 40
- Plant response rating, Goosegrass [6, 15]: 90
- Plant response rating, Goosegrass [6, 16]: 100
- Plant response rating, Goosegrass [6, 17]: 100
- Plant response rating, Goosegrass [6, 18]: 100
- Plant response rating, Barley [7, 20]: 20
- Plant response rating, Barley [7, 21]: 25
- Plant response rating, Barley [7, 22]: 30
- Plant response rating, Barley ([7]; 250 g ai/ha, scale 0 to 100): 30
- Plant response rating, Surinam Grass [8, 11]: 10
- Plant response rating, Surinam Grass [8, 12]: 15
- Plant response rating, Surinam Grass [8, 13]: 20
- Plant response rating, Surinam Grass [8, 14]: 20
- Plant response rating, Surinam Grass [8, 15]: 15
- Plant response rating, Surinam Grass [8, 16]: 20
- Plant response rating, Surinam Grass [8, 17]: 55
- Plant response rating, Surinam Grass [8, 18]: 100
- Plant response rating, Sunflower [9, 23]: 0
- Plant response rating, Sunflower [9, 24]: 0
- Plant response rating, Sunflower [9, 22]: 0
- Plant response rating, Sunflower ([9]; 250 g ai/ha, scale 0 to 100, 0 no effect, 100 complete control): 0
- Plant response rating, Cocklebur [10, 11]: 15
- Plant response rating, Cocklebur [10, 12]: 20
- Plant response rating, Cocklebur [10, 13]: 20
- Plant response rating, Cocklebur [10, 14]: 20
- Plant response rating, Cocklebur [10, 15]: 0
- Plant response rating, Cocklebur [10, 19]: 0
- Plant response rating, Cocklebur [10, 17]: 0
- Plant response rating, Cocklebur [10, 18]: 30

SMILES: COc1nn(-c2ccc(C(F)(F)F)cc2)nc1Cc1ccnc(C(F)(F)F)c1 [Compound 15, 4-[[5-methoxy-2-[4-(trifluoromethyl)phenyl]-2H-1,2,3-triazol-4-yl]methyl]-2-(trifluoromethyl)pyridine]
- Plant response rating, Cupgrass, Woolly [1, 25]: 5
- Plant response rating, Cupgrass, Woolly [1, 11]: 5
- Plant response rating, Cupgrass, Woolly [1, 12]: 5
- Plant response rating, Cupgrass, Woolly [1, 13]: 75
- Plant response rating, Cupgrass, Woolly [1, 26]: 5
- Plant response rating, Cupgrass, Woolly [1, 15]: 45
- Plant response rating, Cupgrass, Woolly [1, 16]: 85
- Plant response rating, Cupgrass, Woolly [1, 17]: 95
- Plant response rating, Bermudagrass [2, 25]: 5
- Plant response rating, Bermudagrass [2, 11]: 5
- Plant response rating, Bermudagrass [2, 12]: 15
- Plant response rating, Bermudagrass [2, 13]: 35
- Plant response rating, Bermudagrass [2, 26]: 100
- Plant response rating, Bermudagrass [2, 15]: 100
- Plant response rating, Bermudagrass [2, 19]: 100
- Plant response rating, Bermudagrass [2, 17]: 100
- Plant response rating, Windgrass [3, 27]: 20
- Plant response rating, Windgrass [3, 20]: 20
- Plant response rating, Windgrass [3, 21]: 85
- Plant response rating, Windgrass [3, 22]: 90
- Plant response rating, Foxtail, Green [4, 25]: 30
- Plant response rating, Foxtail, Green [4, 11]: 40
- Plant response rating, Foxtail, Green [4, 12]: 85
- Plant response rating, Foxtail, Green [4, 13]: 85
- Plant response rating, Foxtail, Green [4, 26]: 95
- Plant response rating, Foxtail, Green [4, 15]: 95
- Plant response rating, Foxtail, Green [4, 16]: 100
- Plant response rating, Foxtail, Green [4, 17]: 100
- Plant response rating, Canarygrass [5, 27]: 35
- Plant response rating, Canarygrass [5, 20]: 60
- Plant response rating, Canarygrass [5, 21]: 85
- Plant response rating, Canarygrass [5, 22]: 85
- Plant response rating, Goosegrass [6, 25]: 5
- Plant response rating, Goosegrass [6, 11]: 25
- Plant response rating, Goosegrass [6, 12]: 40
- Plant response rating, Goosegrass [6, 13]: 65
- Plant response rating, Goosegrass [6, 26]: 100
- Plant response rating, Goosegrass [6, 15]: 100
- Plant response rating, Goosegrass [6, 16]: 100
- Plant response rating, Goosegrass [6, 17]: 100
- Plant response rating, Barley [7, 27]: 30
- Plant response rating, Barley [7, 20]: 35
- Plant response rating, Barley [7, 21]: 35
- Plant response rating, Barley [7, 22]: 50
- Plant response rating, Surinam Grass [8, 25]: 5
- Plant response rating, Surinam Grass [8, 11]: 10
- Plant response rating, Surinam Grass [8, 12]: 15
- Plant response rating, Surinam Grass [8, 13]: 50
- Plant response rating, Surinam Grass [8, 26]: 10
- Plant response rating, Surinam Grass [8, 15]: 40
- Plant response rating, Surinam Grass [8, 16]: 55
- Plant response rating, Surinam Grass [8, 17]: 90
- Plant response rating, Sunflower ([9]; 16 g ai/ha, scale 0 (no effect) to 100 (complete control)): 0
- Plant response rating, Sunflower [9, 23]: 0
- Plant response rating, Sunflower [9, 24]: 0
- Plant response rating, Sunflower [9, 22]: 25
- Plant response rating, Cocklebur [10, 11]: 5
- Plant response rating, Cocklebur [10, 12]: 60
- Plant response rating, Cocklebur [10, 13]: 75
- Plant response rating, Cocklebur [10, 26]: 0
- Plant response rating, Cocklebur [10, 15]: 0
- Plant response rating, Cocklebur [10, 17]: 65

From patent US9302999B2, “Substituted triazoles as herbicides” (E. I. DU PONT DE NEMOURS AND COMPANY, priority 2012, dated 2016)
